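Briefly, cells in 96-well plates were exposed to five compound concentrations for 48 h, and endpoints were estimated by linear interpolation. At the TGI there is no net growth.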
Assays:
Assay in all cases: NCI anticancer screen, dose series, 48 h
[1] = system: A498 renal
[2] = system: ACHN renal
[3] = system: BT-549 breast
[4] = system: DU-145 prostate
[5] = system: EKVX NSCLC
[6] = system: HCC-2998 colon
[7] = system: HCT-116 colon
[8] = system: HCT-15 colon
[9] = system: HL-60(TB) leukemia
[10] = system: HOP-62 NSCLC
[11] = system: HOP-92 NSCLC
[12] = system: HT29 colon
[13] = system: KM12 colon
[14] = system: M14 melanoma
[15] = system: MCF7 breast
[16] = system: MDA-MB-435
[17] = system: MDA-N
[18] = system: MOLT-4 leukemia
[19] = system: NCI-H226 lung
[20] = system: OVCAR-3 ovarian
[21] = system: OVCAR-5 ovarian
[22] = system: OVCAR-8 ovarian
[23] = system: PC-3 prostate
[24] = system: RXF 393 renal
[25] = system: SF-295 CNS
[26] = system: SF-539 CNS
[27] = system: SK-MEL-5 melanoma
[28] = system: SN12C renal
[29] = system: SNB-19 CNS
[30] = system: SR leukemia
[31] = system: SW-620 colon
[32] = system: T-47D breast
[33] = system: TK-10 renal
[34] = system: U251 CNS
[35] = system: UACC-62 melanoma
[36] = system: UO-31 renal
[37] = system: 786-0 renal
[38] = system: A549 NSCLC
[39] = system: CAKI-1 renal
[40] = system: CCRF-CEM leukemia
[41] = system: COLO 205 colon
[42] = system: HS 578T breast
[43] = system: IGROV1 ovarian
[44] = system: K-562 leukemia
[45] = system: LOX IMVI melanoma
[46] = system: MALME-3M melanoma
[47] = system: MDA-MB-231 breast
[48] = system: NCI-H23 lung
[49] = system: NCI-H460 lung
[50] = system: NCI-H522 lung
[51] = system: NCI/ADR-RES ovarian
[52] = system: OVCAR-4 ovarian
[53] = system: RPMI-8226 leukemia
[54] = system: SF-268 CNS
[55] = system: SK-MEL-2 melanoma
[56] = system: SK-MEL-28 melanoma
[57] = system: SK-OV-3 ovarian
[58] = system: SNB-75 CNS
[59] = system: UACC-257 melanoma

CCN(CC)CCCC(C)Nc1cc(/C=C/c2ccc(Cl)cc2)nc2cc(N(C)C)ccc12 (centres undefined) gave a TGI [1] of 3.12 µM, a TGI [2] of 4.42 µM and a TGI [3] of 3.01 µM. For the same compound, the TGI [4] was 3.21 µM, the TGI [5] was 3.34 µM and the TGI [6] was 3.57 µM. The TGI [7] was 2490 nM, the TGI [8] was 3.17 µM and the TGI [9] was 3.54 µM. It also gave a TGI [10] of 3.4 µM, a TGI [11] of 3.16 µM and a TGI [12] of 2.65 µM. The TGI [13] was 3.26 µM, the TGI [14] was 3.09 µM and the TGI [15] was 3.39 µM. It also gave a TGI [16] of 3.06 µM, a TGI [17] of 3.01 µM and a TGI [18] of 3.01 µM. The TGI [19] was 11.6 µM, the TGI [20] was 3.49 µM and the TGI [21] was 3.37 µM. For the same compound, the TGI [22] was 3.41 µM, the TGI [23] was 2780 nM and the TGI [24] was 3.06 µM. It also gave a TGI [25] of 3.33 µM, a TGI [26] of 4.65 µM and a TGI [27] of 4.34 µM. It also gave a TGI [28] of 3.25 µM, a TGI [29] of 3.3 µM and a TGI [30] of 2850 nM. For the same compound, the TGI [31] was 2690 nM, the TGI [32] was 3.55 µM and the TGI [33] was 3.54 µM. For the same compound, the TGI [34] was 3.19 µM, the TGI [35] was 6.54 µM and the TGI [36] was 3.55 µM.

In the case of CCN(CC)C(=S)SS(=O)(=O)c1ccccc1[N+](=O)[O-], the TGI [37] is reported as 33.2 µM, the TGI [1] is reported as greater than 100 µM and the TGI [38] is reported as greater than 100 µM. For the same compound, the TGI [2] was greater than 78.4 µM, the TGI [3] was greater than 80.6 µM and the TGI [39] was 54.9 µM. For the same compound, the TGI [40] was greater than 100 µM, the TGI [41] was greater than 100 µM and the TGI [4] was greater than 66.5 µM. The TGI [5] was greater than 100 µM, the TGI [6] was greater than 100 µM and the TGI [7] was greater than 59100 nM. For the same compound, the TGI [8] was greater than 100 µM, the TGI [9] was greater than 44.8 µM and the TGI [10] was greater than 65.8 µM. For the same compound, the TGI [11] was greater than 54.8 µM, the TGI [42] was greater than 88.7 µM and the TGI [12] was 50.4 µM. It also gave a TGI [43] greater than 100 µM, a TGI [44] of 50.4 µM and a TGI [13] greater than 50 µM. It also gave a TGI [45] greater than 57 µM, a TGI [14] greater than 48.5 µM and a TGI [46] of 22.2 µM. For the same compound, the TGI [47] was 37.3 µM, the TGI [16] was 53.9 µM and the TGI [17] was greater than 66.6 µM. For the same compound, the TGI [18] was 26 µM, the TGI [19] was greater than 93.8 µM and the TGI [48] was 99 µM. The TGI [49] was greater than 100 µM, the TGI [50] was 2830 nM and the TGI [51] was 97.5 µM. It also gave a TGI [20] of 68 µM, a TGI [52] greater than 83.3 µM and a TGI [21] greater than 100 µM. For the same compound, the TGI [22] was greater than 56.9 µM, the TGI [23] was greater than 100000 nM and the TGI [53] was 40.9 µM. For the same compound, the TGI [24] was 45.4 µM, the TGI [54] was greater than 100 µM and the TGI [25] was greater than 100 µM. It also gave a TGI [26] of 34.1 µM, a TGI [55] greater than 100 µM and a TGI [56] of 49.9 µM. The TGI [27] was 24.8 µM, the TGI [57] was greater than 100 µM and the TGI [28] was 56.6 µM. For the same compound, the TGI [29] was greater than 92.8 µM, the TGI [58] was greater than 100 µM and the TGI [30] was greater than 42600 nM. For the same compound, the TGI [31] was greater than 53700 nM, the TGI [32] was greater than 100 µM and the TGI [33] was greater than 90.3 µM. The TGI [34] was greater than 56.2 µM, the TGI [59] was greater than 60.6 µM and the TGI [35] was greater than 100 µM. For the same compound, the TGI [36] was 31.2 µM.

Source: PubChem BioAssay (NCI)
